According to US6379563B1, “Alkylamines as biofilm deactivation agents” (Albemarle Corporation, priority 2000, dated 2002):
Like-named read-outs stand apart in the source and are kept apart here.

Legend:
[1] = tested on: Pseudomonas aeruginosa (ATCC 15442) biofilms; assay: MBEC test, 24-hour biofilm, one hour biocide challenge;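 on all read-outs here: Peg-grown biofilms exposed to biocide, then regrowth in broth 18 h at 35 °C, turbidity by absorbance at 650 nm, above 0.100 counted as growth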; type: cell-based; conditions: for minimum biofilm eradication concentration (MBEC) / MBC: Pseudomonas aeruginosa, ATCC15442, 1 h; for minimum biofilm eradication concentration (MBEC) / biofilm deactivation at 200 ppm (regrowth optical density measurements) / MBEC, avg. / MBEC, ppm (first of duplicate runs) / MBEC, ppm (second of duplicate runs): 24-hour biofilm, 1 hour contact
From the text: The MBEC technique consists of growing identical 24-hour biofilms on 96 pegs arrayed in 12 rows and 8 columns. The biofilms then are challenged with decreasing concentrations of selected antibiotics and/or biocides. After a certain challenge time (generally one hour), the biofilms are placed in 96 individual wells of growth media and ultra-sonicated to deactivate any surviving organisms. After culturing overnight, the wells are checked for turbidity. Clear, transparent wells indicate complete deactivation of the biofilm. Conversely, turbidity (“growth”) indicates lack of complete deactivation of the biofilm.
The minimum biofilm deactivation concentration (MBEC) is defined as the minimum concentration of an agent that completely deactivates biofilm bacteria. […] Unless otherwise indicated, the biofilms used in the examples below consisted of a pure culture of Pseudomonas aeruginosa (ATCC 15442).
Pseudomonas aeruginosa (ATCC 15442) biofilms were prepared on the 96 pegs of the MBEC plate by aerobic incubation in simple salts medium with 0.1% glucose (24 hours, 35° C.). The pegs were rinsed in synthetic water (SW) and then challenged by the biocide for one hour. Following the biocide challenge, the pegs were rinsed twice with SW and then sonicated into Mueller-Hinton broth (225 μL per well). The broth was then incubated for 18 hours at 35° C.

[2] = tested on: 7-day biofilm formed using P. aeruginosa; assay: MBEC test, 7-day biofilm, one hour biocide challenge; type: cell-based, Pseudomonas aeruginosa; conditions: 1 hour contact; for MBEC, avg., Example 4 / MBEC, ppm (first of duplicate runs), Example 4 / MBEC, ppm (second of duplicate runs), Example 4: Example 4, ppm oxidant (as Cl2) or ppm active
From the text: The MBEC technique consists of growing identical 24-hour biofilms on 96 pegs arrayed in 12 rows and 8 columns. The biofilms then are challenged with decreasing concentrations of selected antibiotics and/or biocides. After a certain challenge time (generally one hour), the biofilms are placed in 96 individual wells of growth media and ultra-sonicated to […] any surviving organisms. After culturing overnight, the wells are checked for turbidity. Clear, transparent wells indicate complete deactivation of the biofilm. Conversely, turbidity (“growth”) indicates lack of complete deactivation of the biofilm.
After the 18 hour incubation period, the recovery wells were checked for turbidity. Clear, transparent wells indicated complete deactivation of the biofilm. Conversely, turbidity indicated the lack of complete deactivation of the biofilm. The minimum biofilm deactivation concentration (MBEC) is defined as the minimum concentration of agent which results in complete deactivation of the biofilm. MBEC endpoints were unambiguously determined by absorbance at 650 nm. using UV visible spectroscopy. An absorbance >0.100 was considered a positive indication of growth.
Pseudomonas aeruginosa (ATCC 15442) biofilms were prepared as described in Example I. The 7-day biofilms were prepared by a modification of the above procedure. Each day, spent media was replaced with fresh media and inocula.
Older biofilms offer increased resistance to biocides. Studies were extended to 7-day biofilms formed using P. aeruginosa. The procedure used to form the 7-day biofilm was the same as in Example 1, except that each day, spent media was replaced with fresh media and inocula. This biofilm was then challenged with oxidizing and non-oxidizing biocides.
Another 7-day biofilm was prepared from P. aeruginosa, as in EXAMPLE 3. This biofilm was then challenged with several common oxidizing and non-oxidizing biocides.

[3] = from Bodor, Gabanyi, Wang, JACS 111, 3783 (1989); cited from earlier work
[4] = average of duplicate runs, blends: total amount of components (1:1 ratio), read-out: MBEC, avg.
[5] = blends: total amount of components (1:1 ratio), read-out: MBEC, ppm (first of duplicate runs)
[6] = blends: total amount of components (1:1 ratio), read-out: MBEC, ppm (second of duplicate runs)
[7] = Example 3, ppm oxidant (as Cl2) or ppm active
[8] = blends: total biocide, read-out: MBEC
[9] = read-out: MBEC, avg., 24-hour biofilm, 1 hour contact, average of duplicate runs, blends: total amount of components (1:1 ratio)
[10] = read-out: MBEC, ppm (second of duplicate runs), 24-hour biofilm, 1 hour contact, blends: total amount of components (1:1 ratio)
[11] = read-out: MBEC, ppm (first of duplicate runs), 24-hour biofilm, 1 hour contact, blends: total amount of components (1:1 ratio)
[12] = average of duplicate runs, blends: total amount of components (1:1 ratio)
[13] = blends: total amount of components (1:1 ratio)

SMILES	minimum biofilm eradication concentration (MBEC) [1, 4] [µg/mL]	minimum biofilm eradication concentration (MBEC) [1, 5] [µg/mL]	minimum biofilm eradication concentration (MBEC) [1, 6] [µg/mL]	minimum biofilm eradication concentration (MBEC) [1, 8] [µg/mL]	also measured
CCCCCCN [1-Hexylamine]	1600	1600	1600		
O=c1n(Cl)c(=O)n(Cl)c(=O)n1Cl [Cl2 (from Trichlor), trichloroisocyanuric acid]					MBEC on 7-day biofilm [2]: 20 ppm; MBEC, ppm (first of duplicate runs), Example 3 [2, 7]: 5 ppm; MBEC, ppm (second of duplicate runs), Example 3 [2, 7]: > 10 ppm; MBEC, avg., Example 4 [2]: 20 ppm; MBEC, ppm (first of duplicate runs), Example 4 [2]: 20, 20 ppm; MBEC, ppm (second of duplicate runs), Example 4 [2]: 20, 20 ppm
CCCCCCCCCCCCN [1-Dodecylamine]	25	25	25	~38	MBEC on 7-day biofilm [2]: 75 ppm; MBEC, avg., Example 4 [2]: 75 ppm; MBEC, ppm (first of duplicate runs), Example 4 [2]: 100 ppm; MBEC, ppm (second of duplicate runs), Example 4 [2]: 50 ppm
CCCCCCCCCCN [1-Decylamine]	200	200	200	200	
CCCCCCCCCC[N+](C)(C)CCCCCCCCCC.[Cl-] [DAQ 1010, Didecyldimethyl ammonium chloride]					MBC ([1]; read-out: MBEC, 24-hour biofilm, 1 hour contact, blends: total biocide): ~38 µg/mL; MBC [1, 9]: 50 µg/mL; MBC [1, 10]: 25 µg/mL; MBEC on 7-day biofilm [2]: 75 ppm; MBEC, avg., Example 4 [2]: 75 ppm; MBEC, ppm (first of duplicate runs), Example 4 [2]: 100 ppm; MBEC, ppm (second of duplicate runs), Example 4 [2]: 50 ppm
OC[P+](CO)(CO)CO.[Cl-] [THPC, tetrakis(hydroxymethyl)phosphonium chloride, reference compound]					MBC [1, 9]: 100 µg/mL; MBC [1, 11]: 100 µg/mL; MBC [1, 10]: 100 µg/mL
CCCCN(C)C [N,N-Dimethylbutylamine]					logKow experimental [3]: 1.70
CCCCCCCCNCCCCCCCC [N,N-Dioctylamine]	1600	1600	1600	1600	
CCCCCCCCCCCCCCCCN(C)C [N,N-Dimethylhexadecylamine]	> 200	> 200	> 200	400 to 800	biofilm deactivation at 200 ppm (regrowth optical density measurements) [1]: evidence of biofilm deactivation
CCCCCCCCCCN(C)CCCCCCCCCC [DAMA 1010 Amine, didecylmethylamine]	400	400	400	400	
CCCCCCCCCCCCN(C)C [N,N-Dimethyldodecylamine]					MBC [1, 9]: > 200 µg/mL; MBC [1, 11]: > 200 µg/mL; MBC [1, 10]: > 200 µg/mL
CCCCN [1-Butylamine]					logKow experimental [3]: 0.87
CCCCNCCCC [N,N-Dibutylamine]	> 1600	> 1600	> 1600		logKow experimental [3]: 2.76
CCCCCCCCN [1-Octylamine]	400	400	400	400	
CCCCN(C)CCCC [CH3(C4H9)2N]					MBEC, avg. [1, 12]: >800 ppm; MBEC, ppm (first of duplicate runs) [1, 13]: >800, >800 ppm; MBEC, ppm (second of duplicate runs) [1, 13]: >800, >800 ppm
CCCCCCCCCCCCCCN [1-Tetradecylamine]	25	25	25	25	
CCCCCCCCCCCCCCN(C)C [N,N-Dimethyltetradecylamine]	> 200	> 200	> 200	400 to 800	biofilm deactivation at 200 ppm (regrowth optical density measurements) [1]: evidence of biofilm deactivation
CCCCCCCCN(C)C [N,N-Dimethyloctylamine]	> 800	> 800	> 800		
O=CCCCC=O [glutaraldehyde, reference compound]	50	50	50	50 to 100	MBEC on 7-day biofilm [2]: about 200 ppm; MBEC, avg., Example 3 [2, 7]: ˜200 ppm; MBEC, ppm (first of duplicate runs), Example 3 [2, 7]: 100 ppm; MBEC, ppm (second of duplicate runs), Example 3 [2, 7]: > 200 ppm
CCCCCCCCCCN(C)C [N,N-Dimethyldecylamine]	> 400	> 400	> 400		
CCCCCCCCN(C)CCCCCCCC [CH3(C8H17)2N, Dioctylmethylamine]	800	800	800	800	
CCCCCCN(C)CCCCCC [CH3(C6H13)2N]					MBEC, avg. [1, 12]: >800 ppm; MBEC, ppm (first of duplicate runs) [1, 13]: >800, >800 ppm; MBEC, ppm (second of duplicate runs) [1, 13]: >800, >800 ppm
CCCCCCCCCCCCCCCCN [1-Hexadecylamine]	200	200	200	200	
